This note sets out measurements from article PMC5589751, “Synthesis, high-throughput screening and pharmacological characterization of β–lactam derivatives as TRPM8 antagonists” (Scientific Reports, 2017).

For one series, the target named is TRPA1 (Homo sapiens, UniProt O75762). Put plainly: Whole-cell patch clamp in cells expressing TRPA1. In kind it is cell-based. As for the experimental part:
Electrophysiological recording was carried out 1-3 d after cells seeded. Membrane currents and voltages were recorded by patch clamp using the whole-cell configuration. […] In calcium-free bath solution, CaCl2 was replaced with 5mM EGTA. For potassium and sodium recordings, CsCl was substituted by KCl and the pH was adjusted to pH 7.2 with KOH. Patch pipettes were prepared from thin-walled borosilicate glass capillaries (World Precision Instruments, Sarasota, FL, USA), pulled with a horizontal puller (P-97, Sutter Instruments, Novato, CA, USA) to have a tip resistance of 2-4 MΩ when filled with internal solutions. Data were sampled at 10 kHz (EPC10 amplifier with PatchMaster 2.53 software, HEKA Electronics, Lambrecht, Germany) and low-pass filtered at 3 kHz for analysis (PatchMaster 2.53 and GraphPad Prism 5, Graphpad Software, USA). The series resistance was <10 MΩ and to minimize voltage errors was compensated to 60-80%. All measurements were performed at 24-25°C. The temperature was adjusted with a water-cooled Peltier device placed at the inlet of the chamber and controlled by a feedback device (Automatic Temperature Controller TC-324B, Warner Instruments). Cold-sensitivity was investigated with a temperature decrease to 16-18 °C. page 44: Figure 1S. […] A) […] compound 41 (blue line). Pre-application of compound (20 s) was followed by coapplication with 500 […] 41. […] C) […] Pre-application of […] Voltage was held at -60 mV for all the experiments. […] (1 picture or pasted object on this page, not shown here)

Another series can be described thus: Kinetic solubility. The class given is physicochemical.

Structures are written as SMILES.

Sequence of TRPA1 (O75762 whole entry, species assumed): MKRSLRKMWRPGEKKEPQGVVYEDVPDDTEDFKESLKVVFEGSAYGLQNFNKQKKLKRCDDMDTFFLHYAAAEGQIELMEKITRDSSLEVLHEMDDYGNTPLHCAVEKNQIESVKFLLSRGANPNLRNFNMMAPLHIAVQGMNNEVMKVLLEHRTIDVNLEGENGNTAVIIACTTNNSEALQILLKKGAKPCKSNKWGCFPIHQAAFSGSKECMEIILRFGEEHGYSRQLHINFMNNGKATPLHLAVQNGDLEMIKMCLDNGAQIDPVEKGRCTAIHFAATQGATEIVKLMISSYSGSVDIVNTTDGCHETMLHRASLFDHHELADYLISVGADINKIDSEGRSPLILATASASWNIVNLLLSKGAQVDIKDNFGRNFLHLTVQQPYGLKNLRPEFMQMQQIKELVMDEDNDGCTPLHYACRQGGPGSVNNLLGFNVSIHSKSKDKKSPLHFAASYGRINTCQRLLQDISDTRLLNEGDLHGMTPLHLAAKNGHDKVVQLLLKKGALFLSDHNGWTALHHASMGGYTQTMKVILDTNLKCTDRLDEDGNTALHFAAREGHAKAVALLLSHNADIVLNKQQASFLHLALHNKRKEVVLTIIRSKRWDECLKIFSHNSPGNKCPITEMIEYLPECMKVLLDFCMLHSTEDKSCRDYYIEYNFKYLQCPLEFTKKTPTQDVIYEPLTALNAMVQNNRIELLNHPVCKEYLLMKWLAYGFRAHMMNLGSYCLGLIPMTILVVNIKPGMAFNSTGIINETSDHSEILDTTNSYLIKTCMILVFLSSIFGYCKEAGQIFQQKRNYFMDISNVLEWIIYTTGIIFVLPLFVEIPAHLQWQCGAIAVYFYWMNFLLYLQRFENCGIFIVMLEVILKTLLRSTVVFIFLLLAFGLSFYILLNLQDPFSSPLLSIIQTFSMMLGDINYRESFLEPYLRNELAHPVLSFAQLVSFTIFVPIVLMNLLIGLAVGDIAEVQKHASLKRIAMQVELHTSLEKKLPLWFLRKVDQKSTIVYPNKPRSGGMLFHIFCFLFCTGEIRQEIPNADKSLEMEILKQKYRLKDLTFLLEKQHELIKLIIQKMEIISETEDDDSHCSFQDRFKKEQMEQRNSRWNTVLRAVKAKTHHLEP

Regarding `CC(C)(C)OC(=O)N[C@@H](CCN1C(=O)CC1(Cc1ccccc1)C(=O)OCc1ccccc1)C(=O)OCc1ccccc1` (some centres unmarked) [Compound 41, 4R,S-Benzyl-4-benzyloxycarbonyl-1-[(3′S-benzyloxycarbonyl-3-tert-butoxycarbonylamino-3′-benzyloxycarbonyl)prop-1′-yl]-2-oxoazetidine], the IC50 at TRPA1 is > 1000 nM. For the same molecule, at TRPA1 (1 µM compound, −60 mV), the “agonist activity (activation) on TRPA1” value is on record as “did not produce activation”. Further, the Kinetic solubility in the series “Kinetic solubility” (1% DMSO) and in the series “Kinetic solubility” (5% DMSO) was < 10 µM throughout.
In the case of `CC1C(=O)N(CC[C@H](NC(=O)OC(C)(C)C)C(=O)OCc2ccccc2)C1(Cc1ccccc1)C(=O)OCc1ccccc1` (stereo partly drawn) [Compound 45, 4R,S-Benzyl-4-benzyloxycarbonyl-1-[(3′S-benzyloxycarbonyl-3′-tert-butoxycarbonylamino)prop-1′-yl]-(3R,S)-methyl-2-oxoazetidine], the IC50 on TRPA1 was > 1000 nM.

As a reminder, the IC50 is the concentration that gives 50% inhibition. Low readings indicate inhibition by little substance, high ones a need for much substance.
